Among the test systems are RPMI-8226 leukemia; UACC-62 melanoma; HOP-92 NSCLC; RXF 393 renal; SW-620 colon; NCI-H460 lung; U251 CNS; BT-549 breast; HOP-62 NSCLC; MDA-N; MCF7 breast.
What all share (experiment): growth of human tumour cells (NCI), 48 h

This note sets out measurements from PubChem BioAssay (NCI).

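Each compound was tested at five concentrations against cells in 96-well plates for 48 hours. TGI: concentration producing complete growth inhibition.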 Bounds are passed on as bounds.

`COc1nc(OC)nc(Sc2ccc(Sc3ccc(Sc4nc(OC)nc(OC)n4)cc3)cc2)n1`: the TGI in the assay with RPMI-8226 leukemia, with UACC-62 melanoma, in the assay with HOP-92 NSCLC, with RXF 393 renal, with SW-620 colon and in the assay with NCI-H460 lung was above 100 µM throughout. In the assay with U251 CNS, this molecule returned a TGI above 100 µM.

As for `NCCCCCNOCCCN`, the TGI in the assay with RPMI-8226 leukemia, with UACC-62 melanoma, with BT-549 breast, in the assay on HOP-62 NSCLC, with HOP-92 NSCLC and in the assay with MDA-N was above 100 µM throughout. The TGI in the assay on SW-620 colon, with NCI-H460 lung and with U251 CNS was above 100 µM each time.

Turning to `O=C1Cc2ccccc2CCc2ccsc21`, the TGI with RPMI-8226 leukemia, with HOP-92 NSCLC, in the assay with RXF 393 renal, in the assay with SW-620 colon, in the assay on NCI-H460 lung and with U251 CNS was above 100 µM throughout.

Take `Cc1cc(Cl)ccc1NC(=O)C(=O)Cc1occc(=O)c1O`: the TGI in the assay with RPMI-8226 leukemia, in the assay on UACC-62 melanoma, with HOP-62 NSCLC, with HOP-92 NSCLC, in the assay on RXF 393 renal and with SW-620 colon was above 100 µM throughout. Moreover, the TGI in the assay with NCI-H460 lung and in the assay with U251 CNS was above 100 µM in each case.

For the molecule `COc1nc(C)nc2c1ncn2Cc1ccccc1`, the TGI is above 100 µM with MCF7 breast; above 100 µM in the assay on RPMI-8226 leukemia; above 100 µM with UACC-62 melanoma; above 100 µM in the assay with HOP-62 NSCLC; 53.9 µM in the assay with HOP-92 NSCLC; above 100 µM in the assay with MDA-N. Besides, the TGI in the assay on RXF 393 renal, in the assay on SW-620 colon, in the assay on NCI-H460 lung and with U251 CNS was above 100 µM throughout.

Regarding `CN(C)C(=O)Oc1ccc(C(=S)Nc2ccccc2)cc1Br`, the TGI in the assay with MCF7 breast is above 100 µM; with RPMI-8226 leukemia, 73.9 µM; in the assay with UACC-62 melanoma, 74.4 µM; with BT-549 breast it was 68.7 µM; in the assay on HOP-62 NSCLC, above 100 µM; in the assay with MDA-N, 57.4 µM. Moreover, the TGI with SW-620 colon, in the assay with NCI-H460 lung and in the assay with U251 CNS was above 100 µM each time.

Consider `O=C1Nc2ccc(Br)cc2/C1=C/C(=O)c1ccccc1`, for which the TGI with MCF7 breast was 15.3 µM; in the assay on RPMI-8226 leukemia, above 23.6 µM; in the assay on UACC-62 melanoma, 32.9 µM; with BT-549 breast, 24.6 µM; in the assay with HOP-62 NSCLC, 61.2 µM; in the assay on HOP-92 NSCLC it was 12.5 µM. Besides, the TGI in the assay on RXF 393 renal was 5.45 µM; in the assay on SW-620 colon, 6.42 µM; in the assay with NCI-H460 lung it was 36.9 µM; in the assay with U251 CNS it was 36.7 µM.

Consider `CC(=O)O/N=C/c1cc2c(cc1Br)OCO2`, for which the TGI with RPMI-8226 leukemia, in the assay with UACC-62 melanoma, in the assay with HOP-62 NSCLC, in the assay with HOP-92 NSCLC, with RXF 393 renal and with SW-620 colon was above 349 µM each time. The TGI was above 349 µM with NCI-H460 lung and above 34.9 µM in the assay with U251 CNS.

Turning to `CCCN(CCC)C(=O)c1c(Cl)c2cccnc2n2c(C)cnc12`, the TGI with MCF7 breast, in the assay with RPMI-8226 leukemia, with UACC-62 melanoma, with HOP-62 NSCLC, in the assay with HOP-92 NSCLC and in the assay with MDA-N was above 100 µM each time. Besides, the TGI in the assay on RXF 393 renal, in the assay with SW-620 colon and in the assay on NCI-H460 lung was above 100 µM throughout.

As to `c1ccc(CSC(SCc2ccccc2)c2ccc3c(c2)OCO3)cc1`, the TGI in the assay with MCF7 breast, in the assay on RPMI-8226 leukemia, with UACC-62 melanoma, in the assay on HOP-62 NSCLC, in the assay on HOP-92 NSCLC and in the assay with MDA-N was above 10 µM throughout. Moreover, the TGI with RXF 393 renal, in the assay on SW-620 colon, with NCI-H460 lung and in the assay with U251 CNS was above 10 µM throughout.

In the case of `O=C1c2ccccc2C(=O)c2c(O)c(NCCNCCO)cc(O)c21`, the TGI was 21.4 µM in the assay on RPMI-8226 leukemia; 23.8 µM in the assay with UACC-62 melanoma; 11.5 µM in the assay on HOP-62 NSCLC; 24.6 µM in the assay with HOP-92 NSCLC; 13.4 µM with RXF 393 renal; 12 µM in the assay on SW-620 colon. The TGI in the assay on NCI-H460 lung was found to be 12.3 µM.

For the molecule `Cc1ccc([N+](=O)[O-])c2c(NCCC[N+](C)(C)[O-])ccnc12`, the TGI in the assay with MCF7 breast was 38.1 µM; in the assay with RPMI-8226 leukemia it was above 100 µM; in the assay with HOP-62 NSCLC it was above 100 µM; in the assay on HOP-92 NSCLC it was above 100 µM; in the assay with MDA-N, above 100 µM; in the assay on RXF 393 renal it was above 100 µM. Also, the TGI is above 100 µM with SW-620 colon, 80.1 µM with NCI-H460 lung and above 100 µM with U251 CNS.

For `CC(C)c1cccc(C(C)C)c1NC(=O)C(=O)C1SC(=S)NC1=O` (centres undefined), the TGI in the assay on RPMI-8226 leukemia, with UACC-62 melanoma, in the assay on HOP-62 NSCLC, in the assay on HOP-92 NSCLC, in the assay with RXF 393 renal and in the assay on SW-620 colon was above 100 µM each time. The TGI in the assay on NCI-H460 lung and in the assay with U251 CNS was above 100 µM in each case.

Take `COc1ccc(/C=C(\Cl)c2ccc(OC)cc2)cc1`: the TGI was above 100 µM in the assay on RPMI-8226 leukemia; 99.1 µM in the assay with UACC-62 melanoma; above 100 µM with HOP-62 NSCLC; above 100 µM in the assay with HOP-92 NSCLC; above 100 µM with SW-620 colon; above 100 µM with NCI-H460 lung. This molecule also gave a TGI in the assay with U251 CNS above 100 µM.

For `Cc1nc2nn(C)cc2c(=O)n1/N=C/c1ccccc1`, the TGI in the assay on RPMI-8226 leukemia, with UACC-62 melanoma, in the assay on HOP-62 NSCLC, in the assay with RXF 393 renal, in the assay with SW-620 colon and with NCI-H460 lung was above 100 µM throughout. This molecule returned a TGI with U251 CNS above 100 µM.
